According to PMC7177456, “A Peptidomimetic Fluorescent Probe to Detect the Trypsin β2 Subunit of the Human 20S Proteasome” (International Journal of Molecular Sciences, 2020):

Experiments:
Format in all cases: biochemical, human
[1] = system: 20S proteasome; experiment: Titration: 20S proteasome assay detection limit; settings: substrate 1.34 × 10^−5 M; 20S proteasome 0.05 to 2 nM; 37 °C, 30 min; 320/450 nm; triplicate
Protocol: A total of 160 µL assay buffer was added to each well of the 96-well plate, containing a constant substrate concentration (1.34 × 10^−5 M) (20 µL), followed by 20 µL of the 20S proteasome, with concentrations ranging from 0.05 to 2 nM. In total, seven different concentrations were used. The excitation and emission wavelengths were 320 and 450 nm, respectively. Enzymatic hydrolysis of the peptide was performed in the previously described buffer at 37 °C and continued over 30 min. A linear fragment of the curve was chosen, and the slope was calculated for each system. All measurements were performed in triplicate.

[2] = system: 20S proteasome; experiment: Proteolytic cleavage pattern by RP-HPLC; settings: substrate 3.1 × 10^−6 M, 20S proteasome 1.07 × 10^−9 M, one hour
Protocol: For each sample of the diluted substrate (concentration; 3.1 × 10^−6 M), an appropriate amount of proteasome (1.07 × 10^−9 M) was added, and the solution was incubated for 5, 30, and 60 min. The proteolytic reaction was monitored by RP-HPLC.

[3] = system: 20S proteasome; experiment: Library deconvolution, cleavage rates of sublibraries and individual compounds; settings: P4 Dap(O2(Cbz)), P3 Dap(GO1); 3.4 × 10^−6 M; 20S proteasome 1.46 × 10^−9 M; pH 8.2, 37 °C
Protocol: Deconvolution of the synthesized library with a fixed Arg in position P1 and diversified by DAPEG residues at positions P2–P4 was performed in a solution using a mix and split approach. […] Since the proteasome structure has three pairs of catalytically active subunits with distinct specificities (chymotrypsin, trypsin, and caspase), we repeated these experiments in the presence of a trypsin subunit inhibitor (PR671A). In effect, a 96% reduction in activity was recorded. This observation allowed us to proceed with screening at position P3 (Figure 2A).
Figure 2 Deconvolution of the library (at an average concentration of 3.4 × 10^−6 M) with the general formula ABZ–X4–X3–X2–Arg–ANB–NH2 against the 20S proteasome (1.46 × 10^−9 M). (A) Cleavage rates of individual sublibraries recorded for position X4; (B) Cleavage rates of individual sublibraries recorded for position X3; (C) Cleavage rates of individual compounds modified in position X2. […]
For enzymatic studies, the human 20S proteasome, 26S proteasome, and 20S immunoproteasome were purchased from Boston Biochem (Cambridge, MA, USA). […] The volume composition of each well of the 96-well plate was: 20 µL library, 160 µL assay buffer, and 20 µL 20S proteasome solution at a concentration of 1.07 × 10^−9 M. Absorbance or fluorescence measurements were performed on a FluoroStar OMEGA multimode microplate reader (BMG, Ortenberg, Germany). […]

ABZ–Dap(O2(Cbz))–Dap(GO1)–Dap(O2(Cbz))–Arg–ANB–NH2 [substrate 1]
20S proteasome assay detection limit [1]: 10^−11 M | cleavage products [2]: two products with retention times corresponding to ABZ–Dap(O2(Cbz))–Dap(GO1)–Dap(O2(Cbz))–Arg–OH (2) (tR = 18.24) and ABZ–NH2 (tR = 7.89) | cleavage rate, position P2 (X2), individual compounds [3]: significantly higher compared to the rates of the other tested systems
